{"source": "paper PMC2229530", "about": "(The Journal of General Physiology, 2002)", "key": {"sodium pump [1]": {"target": "sodium pump (Homo sapiens, UniProt P05023)", "assay_type": "cell-based", "settings": "for Slope of replot of A versus inhibitor concentration (unprotonated pump) / Slope of replot of B versus inhibitor concentration (protonated pump): 0.3 mM rubidium; for Slope of replot of A versus inhibitor concentration (unprotonated pump): Fig. 4a; for Slope of replot of B versus inhibitor concentration (protonated pump): Fig. 4b"}, "sodium pump [2]": {"target": "sodium pump (Rattus norvegicus, UniProt P06685)", "sequence (Q63377 whole entry, other chains not shown)": "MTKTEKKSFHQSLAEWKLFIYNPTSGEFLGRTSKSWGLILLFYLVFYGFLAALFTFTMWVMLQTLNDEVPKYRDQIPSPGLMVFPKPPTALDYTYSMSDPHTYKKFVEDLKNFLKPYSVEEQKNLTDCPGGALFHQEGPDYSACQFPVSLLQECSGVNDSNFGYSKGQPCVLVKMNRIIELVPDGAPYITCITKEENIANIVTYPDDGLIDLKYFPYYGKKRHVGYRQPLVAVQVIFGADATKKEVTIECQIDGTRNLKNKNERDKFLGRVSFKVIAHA", "assay_type": "cell-based"}}, "data": [{"compound": "CC[N+](C)(C)Cc1ccccc1Br", "note": "[bretylium]", "values": [{"measurement": "Slope of replot of A versus inhibitor concentration (unprotonated pump)", "setting": "sodium pump [1]; human red blood cells", "result": "0.392 ± 0.078"}, {"measurement": "Slope of replot of B versus inhibitor concentration (protonated pump)", "setting": "sodium pump [1]; human red blood cells", "result": "0.282 ± 0.019"}]}, {"compound": "N=C(N)N.O=[N+]([O-])O", "note": "[guanidinium, Guanidium (guanidine) nitrate]", "values": [{"measurement": "Slope of replot of A versus inhibitor concentration (unprotonated pump)", "setting": "sodium pump [1]; human red blood cells", "result": "0.175 ± 0.014"}, {"measurement": "Slope of replot of B versus inhibitor concentration (protonated pump)", "setting": "sodium pump [1]; human red blood cells", "result": "0.016 ± 0.001"}]}, {"compound": "C[C@@H]1O[C@@H](O[C@H]2C[C@@H](O)[C@]3(CO)[C@H]4[C@H](O)C[C@]5(C)[C@@H](C6=CC(=O)OC6)CC[C@]5(O)[C@@H]4CC[C@]3(O)C2)[C@H](O)[C@H](O)[C@H]1O", "note": "[ouabain]", "values": [{"measurement": "Fold decrease by protons of the kinetic constant / Ki", "setting": "sodium pump [2]; rat red cells", "result": 2.2, "unit": "fold"}, {"measurement": "Fold increase of the kinetic constant for protons caused by the ligand", "setting": "sodium pump [2]; rat red cells", "result": 2.2, "unit": "fold"}]}, {"compound": "[H+]", "note": "[protons]", "values": [{"measurement": "Kd", "setting": "sodium pump [2]; read-out: KH, proton binding to the pump in the absence of rubidium, rat pump, unloaded", "result": 2.11, "unit": "nM"}]}, {"compound": "[Rb]", "note": "[rubidium]", "values": [{"measurement": "Slope of replot of A versus 1/[Rb]", "setting": "sodium pump [2]; rat red blood cells, A normalized to y intercept 1, Fig. 2a", "result": "0.868 ± 0.101"}, {"measurement": "Slope of replot of B versus 1/[Rb]", "setting": "sodium pump [2]; rat red blood cells, Fig. 2a", "result": "0.066 ± 0.0059"}, {"measurement": "Fold decrease by protons of the kinetic constant / Ki", "setting": "sodium pump [2]; rat red cells", "result": "~13", "unit": "fold"}, {"measurement": "KRb, kinetic constant for rubidium binding to the unprotonated pump", "setting": "sodium pump [2]; rat red cells, from replot of A vs 1/Rb, 37°C", "result": "0.87 ± 0.1", "unit": "mM"}, {"measurement": "LRb, kinetic constant for rubidium binding to the protonated pump", "setting": "sodium pump [2]; rat red cells, from replot of B vs 1/Rb, 37°C", "result": "0.066 ± 0.006", "unit": "mM"}, {"measurement": "Slope of replot of A versus 1/[Rb]", "setting": "sodium pump [1]; human red blood cells, A normalized to y intercept 1, Fig. 2b", "result": "1.32 ± 0.07"}, {"measurement": "Slope of replot of B versus 1/[Rb]", "setting": "sodium pump [1]; human red blood cells, Fig. 2b", "result": "0.0387 ± 0.0074"}, {"measurement": "KRb, kinetic constant for rubidium binding to the unprotonated pump", "setting": "sodium pump [1]; human red cells, from replot of A vs 1/Rb, 37°C", "result": "1.32 ± 0.07", "unit": "mM"}, {"measurement": "LRb, kinetic constant for rubidium binding to the protonated pump", "setting": "sodium pump [1]; human red cells, from replot of B vs 1/Rb, 37°C", "result": "0.0387 ± 0.0074", "unit": "mM"}]}, {"compound": "[Na+]", "note": "[sodium]", "values": [{"measurement": "Fold increase by protons of the kinetic constant", "setting": "sodium pump [2]; rat red cells", "result": 7.1, "unit": "fold"}, {"measurement": "Slope of replot of A versus inhibitor concentration (unprotonated pump)", "setting": "sodium pump [1]; human red blood cells", "result": "0.271 ± 0.037"}, {"measurement": "Slope of replot of B versus inhibitor concentration (protonated pump)", "setting": "sodium pump [1]; human red blood cells", "result": "0.040 ± 0.006"}]}]}
